Results on six molecules are retold here after ChEMBL document CHEMBL1147296, “Faeriefungin: a new broad-spectrum antibiotic from Streptomyces griseus var. autotrophicus” (J Nat Prod, 1989).

As usually defined, the MIC is the least concentration at which growth counts as inhibited.

One data set concerns Candida albicans. The data set can be described thus: Antifungal activity against Candida albicans MSU-SM 543 after 2 to 4 days. The format is functional.
The test system of the next data set is Microsporum canis. The data set can be described thus: Antifungal activity against Microsporum canis after 2 to 4 days. It counts as functional.
A further data set has as its system Aspergillus fumigatus. Kind of data set: Antifungal activity against Aspergillus fumigatus MSU-SM 920 after 2 to 4 days. It counts as functional.
The test system of another data set is Trichophyton rubrum. Kind of data set: Antifungal activity against Trichophyton rubrum after 2 to 4 days. The format is functional.
A short description of data set [1]: Toxicity against human erythrocytes at 50 ppm after 60 mins by turbidimetry. The format is cell-based. To be noted: erythrocyte, 1 h.
Data set [2] can be described thus: Toxicity against rat WB-F344 cells assessed as cell viability at 0.05 ppm after 1 hr using trypan blue staining by LDH assay. The format is cell-based. To be noted: read-out: Activity.
A short description of data set [3]: Toxicity against human erythrocytes at 20 ppm after 60 mins by turbidimetry. The format is cell-based. To be noted: erythrocyte, 1 h.
The nature of data set [4]: Toxicity against rat WB-F344 cells assessed as cell viability at 0.5 ppm after 1 hr using trypan blue staining by LDH assay. It counts as cell-based. The conditions noted are these: read-out: Activity.
The nature of data set [5]: Toxicity against rat WB-F344 cells assessed as cell viability at 20 ppm after 1 hr using trypan blue staining by LDH assay. The conditions noted are these: read-out: Activity. The format is cell-based.
Data set [6] can be described thus: Toxicity against human erythrocytes at 0.05 ppm after 60 mins by turbidimetry. It counts as cell-based. To be noted: erythrocyte, 1 h.
The nature of data set [7]: Toxicity against human erythrocytes at 0.5 ppm after 60 mins by turbidimetry. The conditions noted are these: erythrocyte, 1 h. It counts as cell-based.
Data set [8] in a line: Toxicity against rat WB-F344 cells assessed as cell viability at 50 ppm after 1 hr using trypan blue staining by LDH assay. The format is cell-based. The conditions noted are these: read-out: Activity.

Values after ≈ are worked out from the molar mass of the structure shown.

With `Clc1ccccc1C(c1ccccc1)(c1ccccc1)n1ccnc1` [CLOTRIMAZOLE], the minimum inhibitory concentration (MIC) was found to be 1 µg/mL (≈ 2.9 µM) with Candida albicans, 16 µg/mL (≈ 46.4 µM) with Microsporum canis, 1 µg/mL (≈ 2.9 µM) in the data set on Aspergillus fumigatus and 80 µg/mL (≈ 232 µM) against Trichophyton rubrum.
On to NYSTATIN, for which the MIC in the data set with Candida albicans was 3.2 µg/mL; against Microsporum canis, 100 µg/mL; in the data set on Aspergillus fumigatus, 100 µg/mL; with Trichophyton rubrum it was 100 µg/mL.
Take `C[C@@H]1C/C=C/C=C/C=C/C=C/[C@H](O[C@@H]2O[C@H](C)[C@@H](O)[C@H](N)[C@@H]2O)C[C@@H]2O[C@](O)(C[C@@H](O)C[C@H]3O[C@@H]3/C=C/C(=O)O1)C[C@H](O)[C@H]2C(=O)O` [NATAMYCIN]: the MIC with Candida albicans came to 5.5 µg/mL (≈ 8.26 µM); in the data set on Microsporum canis, 16 µg/mL (≈ 24 µM); in the data set with Aspergillus fumigatus, 16 µg/mL (≈ 24 µM); with Trichophyton rubrum, 16 µg/mL (≈ 24 µM).
In the case of `Clc1ccc(COC(Cn2ccnc2)c2ccc(Cl)cc2Cl)c(Cl)c1` (configuration not stated) [MICONAZOLE], the minimal inhibitory concentration (MIC) with Candida albicans was determined as 1 µg/mL (≈ 2.4 µM); against Microsporum canis it was 16 µg/mL (≈ 38.4 µM); in the data set on Aspergillus fumigatus it was 8 µg/mL (≈ 19.2 µM); against Trichophyton rubrum it was 80 µg/mL (≈ 192 µM).
In the case of `CC(=O)N1CCN(c2ccc(OCC3COC(Cn4ccnc4)(c4ccc(Cl)cc4Cl)O3)cc2)CC1` (configuration not stated) [KETOCONAZOLE], the minimal inhibitory concentration (MIC) against Candida albicans came out at 0.5 µg/mL (≈ 0.941 µM); against Microsporum canis it was 5.5 µg/mL (≈ 10.3 µM); against Aspergillus fumigatus, 1 µg/mL (≈ 1.88 µM); in the data set with Trichophyton rubrum it was 5.5 µg/mL (≈ 10.3 µM).
With `C[C@@H]1[C@H](O)[C@@H](C)/C=C/C=C/C=C/C=C/C=C/C=C/C=C/[C@H](O[C@@H]2O[C@H](C)[C@@H](O)[C@H](N)[C@@H]2O)C[C@@H]2O[C@](O)(C[C@@H](O)C[C@@H](O)[C@H](O)CC[C@@H](O)C[C@@H](O)CC(=O)O[C@H]1C)C[C@H](O)[C@H]2C(=O)O` [AMPHOTERICIN B], the MIC stood at 3.2 µg/mL (≈ 3.46 µM) in the data set on Candida albicans, 16 µg/mL (≈ 17.3 µM) in the data set with Microsporum canis, 80 µg/mL (≈ 86.6 µM) against Aspergillus fumigatus and 16 µg/mL (≈ 17.3 µM) against Trichophyton rubrum. In addition, the Activity entry in [1] is “Toxic”; in data set [3], “Toxic”; in [6], “Non-toxic”; in data set [7], “Non-toxic”. Moreover, in [2], the viability at 1 h, 0.05 ppm stood at 100%. In data set [4], the viability at 1 h, 0.5 ppm is 100%. For the same molecule, the viability at 1 h, 20 ppm in data set [5] was 0%. Further, the viability at 1 h, 50 ppm in data set [8] was determined as 0%.
